The results in this text go back to article PMC6520522, “In vitro and in vivo Metabolism of a Potent Inhibitor of Soluble Epoxide Hydrolase, 1-(1-Propionylpiperidin-4-yl)-3-(4-(trifluoromethoxy)phenyl)urea” (Frontiers in Pharmacology, 2019).

A value given as a limit tells only on which side of the number the result lay.

As a reminder, the IC50 is the concentration needed to halve the response being measured. For orientation: Cmax means the peak of the concentration-time curve.

One data set addresses T1, recombinant human sEH (Homo sapiens, UniProt P34913).
T1 sequence (P34913 1-555): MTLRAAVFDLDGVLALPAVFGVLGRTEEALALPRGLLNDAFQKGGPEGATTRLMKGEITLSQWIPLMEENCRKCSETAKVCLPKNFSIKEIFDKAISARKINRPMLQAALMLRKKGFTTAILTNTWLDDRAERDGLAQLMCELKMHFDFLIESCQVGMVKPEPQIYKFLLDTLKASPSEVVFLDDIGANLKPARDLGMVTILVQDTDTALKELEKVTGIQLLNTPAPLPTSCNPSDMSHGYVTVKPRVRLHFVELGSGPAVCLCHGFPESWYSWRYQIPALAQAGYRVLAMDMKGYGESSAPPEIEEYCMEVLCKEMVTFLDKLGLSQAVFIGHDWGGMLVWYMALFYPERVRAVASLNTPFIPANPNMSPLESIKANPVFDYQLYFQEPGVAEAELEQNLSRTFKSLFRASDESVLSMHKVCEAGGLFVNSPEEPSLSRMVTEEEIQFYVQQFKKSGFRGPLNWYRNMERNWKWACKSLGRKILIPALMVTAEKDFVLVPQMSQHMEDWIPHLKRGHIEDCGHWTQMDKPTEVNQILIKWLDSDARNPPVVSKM
The data set is described as follows: sEH inhibition potency, CMNPC fluorescent assay. It is filed as biochemical. The settings on record: for IC50: CMNPC fluorescent assay, recombinant human sEH 1 nM, 30°C, average of three replicates, read-out: HsEH IC50. The procedure: Briefly, recombinant human sEH [1 nM in sodium phosphate buffer (0.1 M, pH = 7.4, 0.1 mg/mL BSA)] was incubated with each analyte (0.1 < [I]final < 10,000 nM) at 30°C for 5 min. Then, the reaction was started with the addition to CMNPC ([S]final = 5 μM). The reaction was monitored kinetically for 10 min at 30°C. The formation of the fluorescent product 6-methoxynaphthaldehyde (λexcitation = 330 nm, λemission = 465 nm, 30°C) was measured every 30 s. IC50 values were determined by regression of the remaining activity in function of the inhibitor concentrations. Assays were run in triplicate and IC50 values are the averages of three replicates.

The nature of data set [1]: Blood pharmacokinetics of TPPU and its metabolites after single oral dose in rats. It is filed as in vivo. The following applies: for half-life: male, Sprague Dawley, rat, whole blood, po, n = 4, read-out: T1/2 (half-life) (converted); for share of the total TPPU-related exposure in blood: single oral dose of TPPU, over 72 h. On the procedure:
(§1) Healthy male rats (Sprague Dawley, n = 4) were housed in temperature-controlled housing with ad libitum standard chow and drinking water. Each rat received TPPU (dissolved in 0.5 mL PEG400) at a dose of 10 mg/kg by oral gavage in order to generate significant amounts of metabolites while corresponding to previous efficacious concentration doses. Both blood and urine samples were collected. Blood samples (10 μL) at time points of 0 (before dosing), 0.25, 0.5, 1, 2, 4, 8, 12, 24, 48, and 72 h post dose were collected from the tail vein. Collected blood samples were transferred to Eppendorf tubes containing 90 μL of EDTA solution (0.1% EDTA and 0.1% acetic acid) and were immediately shaken to avoid blood coagulation. The urine and feces samples were passively collected at the time points of 8, 12, 24, 48, and 72 h post dose. TAPU (10 μL) of 1 μM in methanol was added in each blood and urine sample as an internal standard solution. The blood sample extraction was performed with 200 μL ethyl acetate by liquid-liquid extraction. The representative urine samples were subjected to protein precipitation prior to analysis of TPPU and Phase I metabolites. Briefly, urine (10 μL) was treated with 50 μL acetonitrile. After vortex mixing and centrifugation, the supernatant was collected. The feces samples (50–100 mg) were extracted using 600 μL extraction solution (MeOH: EA = 1:1). The mixtures were kept at −20°C overnight to give efficient extraction of TPPU and its metabolites. On day 2, after vortex mixing and centrifugation, the supernatant was collected. The remaining residue was extracted an additional time with 300 μL extraction solution, and the supernatant was combined after centrifugation. The collected supernatants were dried using a speed vacuum concentrator and reconstituted in 50 μL of 100 nM CUDA solution in methanol. In addition, urine (10 μL) was diluted with water (50 μL) and then subjected to analysis of glucuronide or sulfate conjugates.
(§2) LC-MS/MS analysis was conducted on an Agilent SL 1200 series LC system (Agilent, Palo Alto, CA) connected to a 4,000 Qtrap mass spectrometer (Applied Biosystems Instrument Corporation, Foster City, CA) with Turbo V ion source. Liquid chromatography was performed on a Kinetex® C18 column (100 × 2.1 mm, 1.7 μm). Three μL solution was injected onto the column held at 45°C for analysis. Mobile phase A and B were water with 0.1% acetic acid and acetonitrile with 0.1% acetic acid, respectively. The LC flow rate was 300 μL/min.
(§3) The mass spectrometer was operated in both negative and positive modes. Three different scan types were employed to perform mass spectrometry analysis, including product ion scan, precursor ion scan (optimized parameters in Table S4) and MRM scan (optimized parameters in Table S5).

Data set [2] can be described thus: Urine levels of TPPU and metabolites after single oral dose in rats. It is filed as in vivo. The settings on record: rat, single oral dose 10 mg/kg TPPU; for Cmax: male, Sprague Dawley, urine. On the procedure: as §1, §2, §3
Data set [3] can be described thus: Feces levels of TPPU and metabolites after single oral dose in rats. It is filed as in vivo. The settings on record: rat, single oral dose 10 mg/kg TPPU; for concentration at 8 h: 8h post dose; for concentration at 8 h / concentration at 12 h / concentration at 24 h / concentration at 48 h / concentration at 72 h: n = 3; for concentration at 12 h: 12h post dose; for concentration at 24 h: 24h post dose; for concentration at 48 h: 48h post dose; for concentration at 72 h: 72h post dose.

The nature of data set [4]: In vitro metabolism of TPPU in liver S9 fractions. It is filed as in vitro ADME, human, monkey, dog, rat, mouse. The following applies: for formation of metabolite in liver S9 fractions: with NADPH regeneration system, rat, mouse, dog, monkey, human, 2 h; for formation of metabolite in liver S9 fractions in the absence of a NADPH generation system: without NADPH, liver S9 fractions (Figure S1: human). On the procedure:
The in vitro study of TPPU metabolism was conducted following previous methods as described (Watanabe and Hammock, [2001]). Briefly, 1 μL of TPPU (1 mM in DMSO; [TPPU]final = 10 μM) was mixed with 94 μL of diluted liver S9 fractions (final, 0.05 mg protein/mL) from human, monkey, dog, rat, and mouse and incubations were conducted in a 10 mL glass vial. After 5 min preincubation at 37°C, the reaction was initiated by adding 5 μL of NADPH regeneration solution. The NADPH regeneration solution was prepared by mixing 50 μL of NADP^+ (100 mM), 50 μL of G6P (500 mM), 50 μL of G6PDH (100 Unit/mL), and 100 μL of sodium phosphate buffer. Incubation without NADPH regeneration solution was used as control. Reactions were kept for 2 h and terminated by addition of 100 μL of ice-cold methanol containing CUDA (200 nM) as an internal standard. The mixture was followed by vigorous mixing for 2 min and centrifuging at 10,000^*g for 10 min. Each supernatant was transferred to an HPLC vial and kept under 4°C until LC-MS analysis.
as §2

Data set [5] in a line: Urine levels of TPPU and metabolites after single oral dose in rats. The data set is classed as in vivo. The settings on record: male, Sprague Dawley, rat, single oral dose 10 mg/kg TPPU, n = 3; for concentration at 8 h: 8h post dose; for concentration at 12 h: 12h post dose; for concentration at 24 h: 24h post dose; for concentration at 48 h: 48h post dose; for concentration at 72 h: 72h post dose.

Regarding `CC(O)C(=O)N1CCC(NC(=O)Nc2ccc(OC(F)(F)F)cc2)CC1` (centres unmarked) [Compound M1, 1-(1-(2-hydroxypropanoyl)piperidin-4-yl)-3-(4-(trifluoromethoxy)phenyl)urea], the concentration for half-maximal inhibition (IC50) on recombinant human sEH was 3 ± 0.5 nM. Further, the “fold more potent than M2 toward human sEH” value at recombinant human sEH (ratio of IC50 values, versus M2) is on record as ~ 5 fold. Also, in data set [1] (10 mg/kg, oral gavage 10 mg/kg), the half-life was ~20 h. The “T1/2 (half-life)” value in data set [1] (rat blood, oral gavage 10 mg/kg, n = 4, 10 mg/kg) amounted to 20 ± 3 h. In data set [1] (rat blood), the “share of the total TPPU-related exposure in blood” value is ~ 9.6%. Moreover, in data set [2], the Cmax is 12000 ng/mL and the “time of Cmax in urine” value is recorded as 12 h. In addition, in data set [3] (male, Sprague Dawley, feces), the concentration at 8 h was determined as 3.7 ng/mL, the concentration at 12 h is 5.7 ng/mL, the concentration at 24 h turned out to be 1.1 ng/mL and the concentration at 48 h turned out to be 8.8 ng/mL. In data set [3] (male, Sprague Dawley, feces), the concentration at 72 h came out at 4.4 ng/mL. In addition, in data set [4], the “formation of metabolite in liver S9 fractions” value was “found in all species tested” and the “formation of metabolite in liver S9 fractions in the absence of a NADPH generation system” value is recorded as “failed to be detected”. Besides, in data set [5], the concentration at 8 h was 8 ng/mL, the concentration at 12 h was 1.2 ng/mL, the concentration at 24 h was determined as 5.6 ng/mL and the concentration at 48 h amounted to 3.6 ng/mL. For the same compound, in data set [5], the concentration at 72 h was found to be 2.1 ng/mL.
As for `CCC(=O)N1CCC(NC(=O)Nc2ccc(OC(F)(F)F)cc2)CC1` [TPPU, 1-(1-propionylpiperidin-4-yl)-3-(4-(trifluoromethoxy)phenyl)urea], the “share of the TPPU nucleus in the blood” value in data set [1] (rat blood, oral 10 mg/kg TPPU) is “over 90%”. Also, in data set [2], the Cmax is 5700 ng/mL and the “time of Cmax in urine” value is 8 h. Also, in data set [3] (male, Sprague Dawley, feces), the concentration at 8 h is 1.8 ng/mL, the concentration at 12 h is 2.4 ng/mL, the concentration at 24 h came out at 1.9 ng/mL and the concentration at 48 h came to 7 ng/mL. Moreover, in data set [3] (male, Sprague Dawley, feces), the concentration at 72 h worked out at 1.5 ng/mL and the Cmax was 24000 ng/mL. Besides, the “time of Cmax in feces” value in data set [3] is reported as 12 h. Besides, in data set [4] (2 h of incubation, TPPU 10 μM, 0.05 mg protein/mL), the “TPPU remaining after incubation with liver S9 fractions” value is “over 90%”. Besides, in data set [5], the concentration at 8 h was 5.7 ng/mL, the concentration at 12 h was determined as 5.1 ng/mL, the concentration at 24 h came to 1.6 ng/mL and the concentration at 48 h was 4.6 ng/mL. Further, the concentration at 72 h in data set [5] is 1.1 ng/mL.
Turning to `O=C(Nc1ccc(OC(F)(F)F)cc1)NC1CCN(C(=O)CCO)CC1` [Compound M2, 1-(1-(3-hydroxypropanoyl)piperidin-4-yl)-3-(4-(trifluoromethoxy)phenyl)urea], the IC50 on recombinant human sEH was 16 ± 2 nM. Moreover, the half-life in data set [1] (10 mg/kg, oral gavage 10 mg/kg) is 9.7 ± 0.8 h. For the same compound, in data set [1] (rat blood), the “share of the total TPPU-related exposure in blood” value is < 0.4%. For the same compound, in data set [3] (male, Sprague Dawley, feces), the concentration at 8 h amounted to 4.3 ng/mL, the concentration at 12 h is 6.8 ng/mL, the concentration at 24 h worked out at 6.7 ng/mL and the concentration at 48 h stood at 1.9 ng/mL. Further, the concentration at 72 h in data set [3] (male, Sprague Dawley, feces) is 43 ± 31 ng/mL. For the same compound, in data set [4], the “formation of metabolite in liver S9 fractions” value is “found in all species tested” and the “formation of metabolite in liver S9 fractions in the absence of a NADPH generation system” value is listed as “failed to be detected”. Besides, in data set [5], the concentration at 8 h is 2.7 ng/mL, the concentration at 12 h amounted to 3.2 ng/mL, the concentration at 24 h turned out to be 7.6 ng/mL and the concentration at 48 h stood at 3 ng/mL. Besides, in data set [5], the concentration at 72 h was 61 ± 60 ng/mL.
